Reference: patent US6538106B1, “Compositions and methods for treating infections using analogues of indolicidin” (priority 1996, dated 2003)
Structures can show the parent of a compound that is named as a salt. Where two headings read alike, the source gives them in different places. Peptide text beside a SMILES is read from it.

How the values were obtained:
[1] = Acute single dose toxicity in isotonic saline (ip, iv, sc); assay type: in vivo, Swiss CD1 mice; conditions: 5 days
Experimental: The acute, single dose toxicity of various indolicidin analogues is tested in Swiss CD1 mice using various routes of administration. In order to determine the inherent toxicities of the peptide analogues in the absence of any formulation/delivery vehicle effects, the peptides are all administered in isotonic saline with the final pH between 6 and 7.
After administration, the mice are observed for a period of 5 days.

[2] = tested on: A. calcoaceticus; assay: Broth dilution assay (MIC); assay type: cell-based; conditions: A. calcoaceticus AC001
Experimental: (§1) This assay also uses calcium and magnesium supplemented Mueller Hinton broth as the growth medium. Typically 100 μl of broth is dispensed into each well of a 96-well microtitre plate and 100 μl volumes of two-fold serial dilutions of the peptide analogue are made across the plate. One row of wells receives no peptide and is used as a growth control. Each well is inoculated with approximately 5×10^5 CFU of bacteria and the plate is incubated at 35-37° C. for 16-20 hours.
(§2) For example, MIC values were established for a series of peptide analogues against S. aureus strains.

[3] = tested on: E. cloacae; assay: Broth dilution assay (MIC); assay type: cell-based; conditions: E. cloacae ECL007
Experimental: as §1, §2

[4] = tested on: E. coli; assay: Broth dilution assay (MIC); assay type: cell-based; conditions: E. coli ECO005
Experimental: as §1, §2

[5] = tested on: E. faecalis; assay: Broth dilution assay (MIC); assay type: cell-based; conditions: E. faecalis EFS004
Experimental: as §1, §2

[6] = tested on: K. pneumoniae; assay: Broth dilution assay (MIC); assay type: cell-based; conditions: K. pneumoniae KP001
Experimental: as §1, §2

[7] = tested on: P. aeruginosa; assay: Broth dilution assay (MIC); assay type: cell-based; conditions: P. aeruginosa PA004
Experimental: as §1, §2

[8] = tested on: S. aureus; assay: Broth dilution assay (MIC); assay type: cell-based; conditions: S. aureus SA002
Experimental: as §1, §2

[9] = tested on: S. epidermidis; assay: Broth dilution assay (MIC); assay type: cell-based; conditions: S. epidermidis SE005
Experimental: as §1, §2

[10] = tested on: S. maltophilia; assay: Broth dilution assay (MIC); assay type: cell-based; conditions: S. maltophilia SMA002
Experimental: as §1, §2

[11] = tested on: S. marcescens; assay: Broth dilution assay (MIC); assay type: cell-based; conditions: S. marcescens SMS003
Experimental: as §1, §2

[12] = Liposome dye release; assay type: biochemical
Experimental: In this example, a dye pair consisting of the fluorescent molecule 8-aminonapthalene-1,3,6-trisulfonic acid (ANTS) and its quencher molecule p-xylene-bis-pyridinium bromide (DPX) are used. The mixture of free dye molecules, dye free liposomes, and liposomes containing encapsulated ANTS-DPX are separated by size exclusion chromatography. In the assay, the test peptide is incubated with the ANTS-DPX containing liposomes and the fluorescence due to ANTS release to the outside of the liposome is measured over time.
Using this assay, peptide activity, measured by dye release, is shown to be extremely sensitive to the composition of the liposomes at many liposome to peptide ratios (L/P) (FIG. 7). […] This […] selectivity may mimic that observed […] for bacterial cells in the presence of mammalian cells.
ANTS/DPX can be replaced with fluorescein isothiocyanate-labeled dextran (FD-4), molecular weight 4,400, in the egg PC liposomes.

[13] = tested on: E.coli strain ML-35; assay type: cell-based; conditions: for Growth time of cells at which maximum activity occurs: 50 μg/ml peptide
[14] = tested on: MSSA (Smith, ATCC # 19640); assay: MSSA infection, mouse survival; assay type: in vivo, mice; conditions: formulation D
[15] = tested on: S. epidermidis (ATCC # 12228); assay: S. epidermidis infection, mouse survival; assay type: in vivo, mice
[16] = tested on: MRSA (ATCC # 33591); assay: MRSA infection, mouse survival; assay type: in vivo, mice; conditions: for Percentage of Animals Surviving, Treatment: iv, formulation D
[17] = tested on: A. calcoaceticus; assay: MIC of APS-modified and parent peptides; assay type: cell-based; conditions: A. calcoaceticus AC002
[18] = tested on: E. cloacae; assay: MIC of APS-modified and parent peptides; assay type: cell-based; conditions: E. cloacae ECL007
[19] = tested on: E. coli; assay: MIC of APS-modified and parent peptides; assay type: cell-based; conditions: E. coli ECO005
[20] = tested on: E. faecalis; assay: MIC of APS-modified and parent peptides; assay type: cell-based
Experimental: (§3) All biological assays that compare APS-modified peptides with unmodified peptides are performed on an equimolar ratio. The concentration of APS-modified peptides can be determined by spectrophotometric measurement, which is used to normalize concentrations for biological assays.
(§4) APS-modified peptides are at least as potent as the parent peptides in in vitro assays performed as described herein. MIC values against gram positive bacteria are presented for several APS-modified peptides and compared with the values obtained using the parent peptides (Table 22).

[21] = tested on: S. aureus; assay: MIC of APS-modified and parent peptides; assay type: cell-based
Experimental: as §3, §4

[22] = tested on: K. pneumoniae; assay: MIC of APS-modified and parent peptides; assay type: cell-based; conditions: K. pneumoniae KP001
[23] = tested on: P. aeruginosa; assay: MIC of APS-modified and parent peptides; assay type: cell-based; conditions: P. aeruginosa PA004
[24] = tested on: S. maltophilia; assay: MIC of APS-modified and parent peptides; assay type: cell-based; conditions: S. maltophilia SMA002
[25] = tested on: S. marcescens; assay: MIC of APS-modified and parent peptides; assay type: cell-based; conditions: S. marcescens SMS003

Compound	MIC [2] [µg/mL]	MIC [3] [µg/mL]	MIC [4] [µg/mL]	MIC [5] [µg/mL]	MIC [6] [µg/mL]	MIC [7] [µg/mL]	MIC [8] [µg/mL]	MIC [9] [µg/mL]	MIC [10] [µg/mL]	MIC [11] [µg/mL]	Corrected MIC [17] [µg/mL]	Corrected MIC [19] [µg/mL]	Corrected MIC ([20]; E. faecalis EFS001) [µg/mL]	Corrected MIC ([20]; E. faecalis EFS004) [µg/mL]	Corrected MIC ([20]; E. faecalis EFS008) [µg/mL]	Corrected MIC ([21]; S. aureus SA010) [µg/mL]	Corrected MIC ([21]; S. aureus SA014) [µg/mL]	Corrected MIC ([21]; S. aureus SA018) [µg/mL]	Corrected MIC ([21]; S. aureus SA025) [µg/mL]	Corrected MIC [24] [µg/mL]	other results
CC[C@H](C)[C@H](N)C(=O)N[C@@H](CC(C)C)C(=O)N[C@@H](CCCCN)C(=O)N[C@@H](CCCCN)C(=O)N[C@@H](Cc1c[nH]c2ccccc12)C(=O)N1CCC[C@H]1C(=O)N[C@@H](Cc1c[nH]c2ccccc12)C(=O)N[C@@H](Cc1c[nH]c2ccccc12)C(=O)N1CCC[C@H]1C(=O)N[C@@H](Cc1c[nH]c2ccccc12)C(=O)N[C@@H](CCCNC(=N)N)C(=O)N[C@@H](CCCNC(=N)N)C(=O)N[C@@H](CCCCN)C(N)=O [MBI 11CN HCl, I L K K W P W W P W R R K] (H-ILKKWPWWPWRRK-NH2; N-terminus assumed)																					LD90-100 [1]: 8.0 mg/kg
I L K K I P I I P I R R K [MBI 11A2CN]	>256	>256	>256	>256	>256	>256	>256	256	>256	>256											
I L K K W P W W P W R R K [MBI 11CN]											4	16	32	8	64	2	16	64	4	128	Release of FD-4 (fluorescein isothiocyanate-labeled dextran, MW 4,400) ([12]; egg PC liposomes): No increase in FD-4 fluorescence is detected; Membrane permeabilizing activity (ANTS/DPX dye release) ([12]; egg PC liposomes with cholesterol added, even at very high lipid to peptide molar ratios): virtually abolishes membrane permeabilizing activity; ONPG hydrolysis diminished, cells pre-incubated with valinomycin vs no pre-incubation [13]: approximately 50%; mice rescued from MSSA infection ([14]; 35.7 mg/kg ip, 60 minutes post-infection): 100%; activity at lower dose levels ([14]; dose levels lower than 35.7 mg/kg ip): little or no activity; survival of mice ([15]; iv, formulation D, treatment 15 minutes post-infection): Efficacy is observed at all three dose levels; survival of mice ([15]; iv, formulation D, treatment 30 minutes post-infection): less activity; survival of mice ([15]; iv, formulation D, treatment 60 minutes post-infection): no significant effect; survival of mice ([15]; single iv injection of […] 15 minutes post-infection): best survival rate; survival of mice ([16]; 1 mg/kg (20 min) protocol: five […] iv injections at −10, −5, 0, +5, +10 mins): delayed the death of the mice to a significant extent; survival of mice ([16]; 1 mg/kg (2 hr) protocol: five […] iv injections 1 hour apart): no improvement in survivability over the negative control; survival of mice ([16]; 5 mg/kg protocol: three 5.5 mg/kg iv injections at −5, +55, +115 mins): no improvement in survivability over the negative control; Percentage of Animals Surviving, Treatment ([16]; 6 hours post-infection): 70%; Percentage of Animals Surviving, Treatment ([16]; 10 hours post-infection): 30%; Corrected MIC [18]: >128 µg/mL; Corrected MIC ([21]; S. aureus SA011): 8 µg/mL; Corrected MIC ([21]; S. aureus SA093): 2 µg/mL; Corrected MIC [22]: 128 µg/mL; Corrected MIC [23]: >128 µg/mL; Corrected MIC [25]: >128 µg/mL
I L P W K W P W W P W R R [MBI 10CN]	64	256	64	64	64	>256	16	8	64	>256											ONPG hydrolysis diminished, cells pre-incubated with valinomycin vs no pre-incubation [13]: approximately 50%; survival at lower doses ([14]; below 14.5 mg/kg ip): clear dose-dependent survival
I L R R W P W W P W R K [MBI 11B2CN]	128	>256	64	64	>256	256	32	4	32	>256											
I L R R W P W W P W R R K [MBI 11B1CN]	64	>256	64	64	>256	64	32	4	32	>256	2	8		8	32	1	8	16	1	128	Corrected MIC ([21]; S. aureus SA093): 1 µg/mL; Corrected MIC [23]: 128 µg/mL; Corrected MIC [25]: >128 µg/mL
I L R W P W W P W R R K [MBI 11B7CN]	64	>256	64	64	256	256	16	4	32	>256		8	8	8	32					32	Growth time of cells at which maximum activity occurs ([13]; early mid-log): 140 min; Growth time of cells at which maximum activity occurs ([13]; late mid-log): 230 min; Effect on membrane permeabilizing activity ([13]; peptide pre-incubated in HEPES/sucrose buffer with 5 mM Mg2+): significant inhibition; Effect on membrane permeabilizing activity ([13]; peptide pre-incubated in HEPES/sucrose buffer with 150 mM NaCl): significant inhibition
i L K K W P W W P W R R k [MBI 11E3CN]											2	8	8	2	16	1	4	16	1	64	Corrected MIC [18]: >128 µg/mL; Corrected MIC ([21]; S. aureus SA011): 4 µg/mL; Corrected MIC ([21]; S. aureus SA093): 1 µg/mL; Corrected MIC [22]: 8 µg/mL; Corrected MIC [23]: 128 µg/mL; Corrected MIC [25]: >128 µg/mL
